For data set [1], the system named is hMPV. The settings on record: background statement; cited from earlier work.
Data set [2] relates to hMPV. The settings on record: background statement; cited from earlier work. This is another data set of the same source.
In data set [3] the test system is hMPV. The settings on record: background statement; cited from earlier work. This is another data set of the same source.
Data set [4] is described as follows: Uninfected (sham infected) mice treated for 5 days, check for toxic and non specific effects. The data set is classed as in vivo, BALB/c mice. Particulars: 500 μM. The procedure: In the second protocol, groups of 18 4-6-week-old BALB/c mice (Charles River Laboratories) were infected intranasally with 6-8×10^5 TCID50 hMPV strain C-85473 in 25 μl of OptiMEM™ supplemented with the PAR-1 agonist, PAR-1 antagonist or control peptide at a final concentration of 500 μM. As infected controls, groups of 18 4-6-week-old BALB/c mice (Charles River Laboratories) were infected intranasally with 6-8×10^5 TCID50 hMPV strain C-85473 in 25 μl of OptiMEM™ supplemented with H2O or DMSO. As uninfected control, groups 18 mice were sham infected with the concentrated supernatant of non-infected LLC-MK2 cells supplemented with the PAR-1 agonist, PAR-1 antagonist or control peptide at a final concentration of 500 μM or DMSO. On day 1 through 4 post infection, animals were treated with the PAR-1 agonist, PAR-1 antagonist or control peptide at a final concentration of 50 μM or 500 μM, or H2O or DMSO for control groups, resulting in a 5-day treatment in total. Animals were housed in groups of five and three in micro-isolator cages. The animals were evaluated on a daily basis for mortality, weight loss, and the presence of symptoms. On day 5 post-infection, lungs were removed from six mice per group for the evaluation of viral titres by cell culture and cytokine expression by Iuminex™. […]
(§1) 250 μL of lung homogenates (see section “Pulmonary viral titers”) were added to 250 μl 50 mM KPO4, pH 6.0 buffer containing 0.2% CHAPS {3-[(3-cholamidopropyl)-dimethylammonio]1-1-propanesulfonate} (Sigma) and 0.2% of a protease inhibitor cocktail (Sigma) and stored at −20° C. until the day of analysis. Samples were centrifuged at 13,800×g for 10 min at 4° C., and 50 μl of the supernatant was used for cytokine quantification. Levels of interleukin-4, IL-6, IL-12(p40), IL-12(p70), IFN-γ, KC, MCP-1, MIP-1α, RANTES were determined by the use of a 9-plex mouse bead kits (BioRad™/Millipore™) according to the manufacturer's instructions. Experiments were performed in a 96-well filter plate and results were analysed with the Luminex™ system (Qiagen™).

Data set [5] has as its system hMPV strain C-85473. The data set is described as follows: hMPV-infected BALB/c mice, five-day treatment started simultaneously or 24 h post infection (experiment 3). The data set is classed as in vivo. The settings on record: 500 μM. The procedure:
(§2) hMPV viral titers were determined by 10-fold serial dilutions of virus in 24-well plates containing LLC-MK2 cells. Before infection, cells were washed twice with phosphate-buffered saline (PBS) to remove residual serum proteins that could inhibit trypsin activity. Infected plates were incubated at 37° C. with 5% CO2 and replenished with 1 μl of fresh trypsin (0.0002%) every other day. hRSV viral titers were determined by 10-fold serial dilutions of virus in 24-well plates containing Hep2 cells. Before infection, cells were washed twice with phosphate-buffered saline (PBS). Infected plates were incubated at 37° C. with 5% CO2. On day 4 post infection, plates were fixed with 80% acetone at −20° C. for 30 min, washed with PBS and air dried. The presence of hRSV was detected by an immuno-staining assay using a monoclonal goat Anti-Respiratory Syncytial Virus primary antibody and a donkey anti-Goat IgG Secondary Antibody, HRP conjugate (both from Cederlane). Virus titers were reported as 50% tissue culture infectious doses (TCID50) per ml, per mouse or per gram of lung. The lower limit of detection of the assay is 10^2 TCID50 per gram. TCID50 were calculated by the Reed and Muench method.
In a third protocol, Two groups of 12 4-6-week-old BALB/c mice (Charles River Laboratories) were infected intranasally with 6×105 TCID50 hMPV strain C-85473 in 25 μl of OptiMEM™, supplemented with the PAR-1 agonist or PAR-1 antagonist at a final concentration of 500 μM and treated on days 1 through 4 post infection with the PAR-1 agonist or PAR-1 antagonist (500 μM). Two more groups of 4-6-week-old BALB/c mice (Charles River Laboratories) were infected intranasally with 6×105 TCID50 hMPV strain C-85473 in 25 μl of OptiMEM™. These groups were treated from day 1 though 5 post infection (treatment delayed 24 h post-infection) with the PAR-1 agonist or PAR-1 antagonist (500 μM). As infected controls, groups of 12 4-6-week-old BALB/c mice (Charles River Laboratories) were infected intranasally with 4×105 TCID50 hMPV strain C-85473 in 25 μl of OptiMEM supplemented with DMSO. All animals were housed in groups of four in micro-isolator cages. The animals were evaluated on a daily basis for mortality, weight loss, and the presence of symptoms. On day 5 post-infection, lungs were removed from six mice per group for the evaluation of viral titres by cell culture
(§3) On day 5 post infection, six animals per group were sacrificed, the lungs were removed and snap frozen in liquid nitrogen. Lungs were weighed, homogenized in 1 ml of PBS, centrifuged (2000 rpm, 10 min) and the supernatant was used to infect LLC-MK2 monolayers (in case of hMPV-infected mice) or Hep2 monolayer (in case of hRSV-infected mice) for virus titration as reported in the section “Viral titers”.
(§4) Differences in weight loss between groups was analysed by repeated measures two-way ANOVA. Viral titers, cytokine levels and mean histopathology scores were analysed using student t-test.

The test system of data set [6] is hMPV strain C-85473. In words: hMPV-infected BALB/c mice, three-day prophylactic treatment regimen (experiment 1). The settings on record: 3-day treatment; for mice that reached the humane endpoint: none in the untreated group. The data set is classed as in vivo. The procedure: as §2
In the first protocol, groups of 12 4-6-week-old female BALB/c mice (Charles River Laboratories) were infected intranasally with 4-7×10^5 TCID50 hMPV strain C-85473 in 25 μl of OptiMEM™ supplemented with the PAR-1 or PAR-1 antagonist at a final concentration of 50 μM or 500 μM. As infected controls, groups of 12 4-6-week-old BALB/c mice (Charles River Laboratories) were infected intranasally with 4-7×10^5 TCID50 hMPV strain C-85473 in 25 μl of OptiMEM™ supplemented with H2O or DMSO. As an uninfected control, 12 mice were sham infected with the concentrated supernatant of non-infected LLC-MK2 cells supplemented with DMSO. On day 1 and 2 post infection, animals were treated with the PAR-1 agonist or PAR-1 antagonist at a final concentration of 50 μM or 500 μM, or H2O or DMSO for control groups, resulting in a 3-day treatment in total. All animals were housed in groups of four in micro-isolator cages. The animals were evaluated on a daily basis for mortality, weight loss, and the presence of symptoms. On day 5 post-infection, lungs were removed from six mice per group for the evaluation of viral titres by cell culture and cytokine expression by Luminex™.
as §3, §1, §4

Data set [7] has as its system hMPV strain C-85473. In words: hMPV-infected BALB/c mice, five-day pre-exposure prophylactic treatment regimen (experiment 2). Type of data set: in vivo. Particulars: 500 μM, 5-day treatment. The procedure:
as §2
In the second protocol, groups of 18 4-6-week-old BALB/c mice (Charles River Laboratories) were infected intranasally with 6-8×10^5 TCID50 hMPV strain C-85473 in 25 μl of OptiMEM™ supplemented with the PAR-1 agonist, PAR-1 antagonist or control peptide at a final concentration of 500 μM. As infected controls, groups of 18 4-6-week-old BALB/c mice (Charles River Laboratories) were infected intranasally with 6-8×10^5 TCID50 hMPV strain C-85473 in 25 μl of OptiMEM™ supplemented with H2O or DMSO. As uninfected control, groups 18 mice were sham infected with the concentrated supernatant of non-infected LLC-MK2 cells supplemented with the PAR-1 agonist, PAR-1 antagonist or control peptide at a final concentration of 500 μM or DMSO. On day 1 through 4 post infection, animals were treated with the PAR-1 agonist, PAR-1 antagonist or control peptide at a final concentration of 50 μM or 500 μM, or H2O or DMSO for control groups, resulting in a 5-day treatment in total. Animals were housed in groups of five and three in micro-isolator cages. The animals were evaluated on a daily basis for mortality, weight loss, and the presence of symptoms. On day 5 post-infection, lungs were removed from six mice per group for the evaluation of viral titres by cell culture and cytokine expression by Iuminex™. Lungs of another six mice per group were removed for histopathological analysis.
as §3, §1
On day 5 post infection, 6 animals per group were sacrificed, and the lungs were collected at specified time points and fixed with 4% buffered formalin. […]

Where no end group is shown, it is not given here.

For `NC(=O)c1ncn([C@@H]2O[C@H](CO)[C@@H](O)[C@H]2O)n1` [Ribavirin], the “effect in hMPV-infected mice” value with hMPV [1] is reported as “effective”. In the data set on hMPV [2], the “in vitro activity against hMPV” value was “good in vitro activity”. Also, in the data set with hMPV [3], the “effect in a lung transplant recipient with hMPV pneumonia” value is “effective”.
For `C[C@]12C[C@H](O)[C@H]3[C@@H](CCC4=CC(=O)CC[C@@]43C)[C@@H]1CC[C@@H]2C(=O)CO` [corticosterone], the “effect in hMPV-infected mice” value with hMPV [1] is reported as “minimal benefit”.
As for FTLLR-NH2 [control peptide, FTLLR-NH2], in data set [4], the “weight loss or symptoms in uninfected mice” value was “In none of the uninfected groups significant weight loss or symptoms were observed”.
Regarding TFLLR-NH2 [PAR-1 agonist], the weight loss result with hMPV strain C-85473 [5] (5-day prophylactic treatment started simultaneously with infection, vs infected/untreated group (FIG. 12)) is “regained weight less rapidly than the control”; with hMPV strain C-85473 [5] (5-day treatment started 24 h post infection, vs infected/untreated mice (FIG. 13)) it was “regained their weight more slowly than infected/untreated mice”; in the data set with hMPV strain C-85473 [5] (5-day treatment started 24 h post infection, vs infected/untreated mice (FIG. 13), listed as PAR1 agonist), “more weight loss than infected/untreated mice”; with hMPV strain C-85473 [6] (hMPV-infected mice, 50 or 500 μM intranasal, vs infected untreated mice (H2O or DMSO), followed 14 days), “dose-dependent increase in weight loss”. The “pulmonary viral titers, treatment started simultaneously vs 24 h post infection” value in the data set on hMPV strain C-85473 [5] (day 5 post infection) is reported as “No significant difference”. For the same molecule, the entries for the “mice that reached the humane endpoint” value in the data set with hMPV strain C-85473 [6] (50 μM) and in the data set with hMPV strain C-85473 [6] (500 μM) were “One out of 6” and 3 out of 6, respectively. The “difference in weight loss vs infected untreated mice” value in the data set with hMPV strain C-85473 [6] (500 μM) is on record as “significant on days 5 through 7”. Also, the pulmonary viral titers result with hMPV strain C-85473 [6] (day 5 post hMPV infection, 50 or 500 μM, vs diluted DMSO or H2O treated mice) is given as “No significant difference”; with hMPV strain C-85473 [7] (day 5 post infection, vs other infected groups), “No significant difference”. Besides, the “cytokine expression in the lungs” value in the data set on hMPV strain C-85473 [6] (day 5 post infection, 50 or 500 μM, Luminex) is “dose-dependent increases in IL-6, IL-12(p40) and MCP-1”. Further, in data set [4], the “weight loss or symptoms in uninfected mice” value was “In none of the uninfected groups significant weight loss or symptoms were observed”. Besides, the “lung histopathological inflammation criteria compared to uninfected, untreated mice” value with hMPV strain C-85473 [7] (day 5 post hMPV infection) is “increases in all but one (peribronchial) inflammation criteria”. The “pulmonary inflammation (histopathology)” value in the data set on hMPV strain C-85473 [7] (day 5 post hMPV infection, infected treated vs infected untreated mice) is on record as “No significant difference”. Also, in the data set with hMPV strain C-85473 [7] (day 5 post infection, Luminex), the “pulmonary cytokine/chemokine levels compared to infected mice treated with H2O” value is “increased levels of IL-4, IL-12(p40) and MCP-1”. Besides, the “pulmonary cytokine/chemokine levels compared to mice treated with the control peptide” value in the data set with hMPV strain C-85473 [7] (day 5 post infection, Luminex) was “increased levels of IL-4, KC, MCP-1 and MIP-1α”. Further, in the data set with hMPV strain C-85473 [7] (hMPV-infected mice, vs infected untreated mice), the “weight loss (and symptoms)” value is “no significant difference in weight loss”.

Source of the values: patent US20140378502A1, “Par1 Inhibitors for Use in the Treatment or Prevention of Paramyxoviridae Infections” (Université Laval, priority 2011, published 2014).
